From ChEMBL document CHEMBL5038623, “Synthesis and bioactivities of new N-terminal dipeptide mimetics with aromatic amide moiety: Broad-spectrum antibacterial activity and high antineoplastic activity” (Eur J Med Chem, 2022)
Converted amounts (≈) assume the structure as drawn. Each block holds one compound with its values, some of them ahead of it. The source made the active and inactive calls. The rule behind the calls is not given here.

How the values were obtained:
Escherichia coli [1] = experiment: Antibacterial activity against Escherichia coli ATCC25922 assessed as reduction in microbial growth after 24 hrs by broth dilution method; type: functional; settings: ATCC 25922
Staphylococcus aureus [2] = experiment: Antibacterial activity against Staphylococcus aureus ATCC 6538 assessed as reduction in microbial growth after 24 hrs by broth dilution method; type: functional
Klebsiella pneumoniae = experiment: Antibacterial activity against Klebsiella pneumoniae ATCC 700603 assessed as reduction in microbial growth after 24 hrs by broth dilution method; type: functional
Escherichia coli [3] = experiment: Antibacterial activity against Escherichia coli ATCC25922 assessed as zone of inhibition incubated for 12 hrs by disc diffusion method; type: functional, ATCC 25922
Staphylococcus aureus [4] = experiment: Antibacterial activity against Staphylococcus aureus ATCC 6538 assessed as zone of inhibition incubated for 12 hrs by disc diffusion method; type: functional
[5] = Selectivity index, HC50 for hemolytic activity in rabbit RBC to MIC for antibacterial activity against methicillin-resistant Staphylococcus aureus ATCC 33591; type: toxicity; settings: rabbit red blood cells (RBC), read-out: Selectivity Index
[6] = Hemolytic activity in rabbit RBC measured after 1 hrs by microplate reader assay; type: toxicity, cell-based, Oryctolagus cuniculus, Erythrocyte; settings: rabbit red blood cells (RBC)
Staphylococcus aureus [7] = experiment: Antibacterial activity against methicillin-resistant Staphylococcus aureus ATCC 33591 assessed as MIC incubated for 12 hrs
SGC-7901 [8] = experiment: Cytotoxicity against human SGC-7901 cells assessed as reduction in cell viability after 24 hrs by MTT assay; type: functional, cell-based; settings: SGC-7901, 24 h
Escherichia coli [9] = experiment: Bactericidal activity against Escherichia coli at 2MIC measured after 1 hrs by time-kill dilution assay relative to control; type: functional
Escherichia coli [10] = experiment: Bactericidal activity against Escherichia coli at 4MIC measured after 1 hrs by time-kill dilution assay relative to control; type: functional
Escherichia coli [11] = experiment: Bactericidal activity against Escherichia coli measured after 7 hrs by time-kill dilution assay relative to control; type: functional, organism-based
Staphylococcus aureus [12] = experiment: Antibacterial activity against Staphylococcus aureus incubated with 50% plasma (unknown origin) measured after 4 hrs; type: functional, organism-based
Staphylococcus aureus [13] = experiment: Antibacterial activity against Staphylococcus aureus incubated with 50% plasma (unknown origin) measured after 8 hrs; type: functional
Staphylococcus aureus [14] = experiment: Antibacterial activity against Staphylococcus aureus assessed as fold change of bacterial growth inhibition incubated with 50% plasma (unknown origin); type: functional
Staphylococcus aureus [15] = experiment: Antibacterial activity against Staphylococcus aureus assessed as fold change of bacterial growth inhibition incubated with 50% blood (unknown origin); type: functional
Staphylococcus aureus [16] = experiment: Antibacterial activity against Staphylococcus aureus assessed as bacterial growth inhibition incubated with 50% serum (unknown origin); type: functional, organism-based
Staphylococcus aureus [17] = experiment: Antibacterial activity against Staphylococcus aureus at sub-MIC measured treated over 16 serial passages after 24 hrs by resistance development assay; type: functional, organism-based
Escherichia coli [18] = experiment: Antibacterial activity against Escherichia coli at sub-MIC treated over 16 serial passages measured after 24 hrs by resistance development assay; type: functional, organism-based
Escherichia coli [19] = experiment: Antibiofilm activity against Escherichia coli at 20 ug/ml after 72 hrs by crystal violet staining based assay; type: functional; settings: dose 20 µg/ml
Escherichia coli [20] = experiment: Antibiofilm activity against Escherichia coli at 40 ug/ml after 72 hrs by crystal violet staining based assay; type: functional; settings: dose 40 µg/ml
Escherichia coli [21] = experiment: Antibiofilm activity against Escherichia coli at 80 ug/ml after 72 hrs by crystal violet staining based assay; type: functional; settings: dose 80 µg/ml
Escherichia coli [22] = experiment: Antibiofilm activity against Escherichia coli at 160 ug/ml after 72 hrs by crystal violet staining based assay; type: functional; settings: dose 160 µg/ml
Escherichia coli [23] = experiment: Antibiofilm activity against Escherichia coli at 320 ug/ml after 72 hrs by crystal violet staining based assay; type: functional; settings: dose 320 µg/ml
Staphylococcus aureus [24] = experiment: Antibiofilm activity against Staphylococcus aureus at 80 ug/ml after 24 hrs by crystal violet staining based assay; type: functional; settings: dose 80 µg/ml
Staphylococcus aureus [25] = experiment: Antibiofilm activity against Staphylococcus aureus at 160 ug/ml after 24 hrs by crystal violet staining based assay; type: functional; settings: dose 160 µg/ml
Staphylococcus aureus [26] = experiment: Antibiofilm activity against Staphylococcus aureus at 320 ug/ml after 24 hrs by crystal violet staining based assay; type: functional; settings: dose 320 µg/ml
Staphylococcus aureus [27] = experiment: Bactericidal activity against Staphylococcus aureus assessed as changes in cell morphology incubated for 3 hrs by SEM analysis; type: functional, organism-based
Escherichia coli [28] = experiment: Bactericidal activity against Escherichia coli assessed as changes in cell morphology incubated for 3 hrs by SEM analysis; type: functional, organism-based
SGC-7901 [29] = experiment: Induction of apoptosis in human SGC-7901 cells assessed as apoptosis rate at 5 ug/ml incubated for 24 hrs by annexin V-FITC/propidium iodide staining based flow cytometric analysis (reference value: 7.44%); type: functional; settings: dose 5 µg/ml
SGC-7901 [30] = experiment: Induction of apoptosis in human SGC-7901 cells assessed as apoptosis rate at 25 ug/ml incubated for 24 hrs by annexin V-FITC/propidium iodide staining based flow cytometric analysis (reference value: 7.44%); type: functional; settings: dose 25 µg/ml
SGC-7901 [31] = experiment: Induction of apoptosis in human SGC-7901 cells assessed as apoptosis rate level at 50 ug/ml incubated for 24 hrs by annexin V-FITC/propidium iodide staining based flow cytometric analysis (reference value: 7.44%); type: functional; settings: dose 50 µg/ml
L929 [32] = experiment: Cytotoxicity against mouse L929 cells assessed as reduction in cell viability at 31.5 to 125 ug/ml incubated for 24 hrs by MTT assay; type: toxicity, cell-based; settings: l929, 24 h, at 31.5 to 125 µg/mL, dose 31.5-125 µg/ml
L929 [33] = experiment: Cytotoxicity against mouse L929 cells assessed as reduction in cell viability at 1000 ug/ml incubated for 24 hrs by MTT assay; type: toxicity, cell-based; settings: l929, 24 h, at 1000 µg/mL
L929 [34] = experiment: Cytotoxicity against mouse L929 cells assessed as reduction in cell viability at 15.6 ug/ml incubated for 24 hrs by MTT assay; type: toxicity, cell-based; settings: l929, 24 h, dose 15.6 µg/ml
Escherichia coli [35] = experiment: Antibacterial activity against Escherichia coli assessed as fold change of bacterial growth inhibition incubated with 50% plasma (unknown origin); type: functional
Escherichia coli [36] = experiment: Antibacterial activity against Escherichia coli assessed as fold change of bacterial growth inhibition incubated with 50% blood (unknown origin); type: functional
Escherichia coli [37] = experiment: Antibacterial activity against Escherichia coli assessed as bacterial growth inhibition incubated with 50% serum (unknown origin); type: functional, organism-based

MIC (Escherichia coli [1]): > 1250 µg/mL | MIC (Staphylococcus aureus [2]): > 1250 µg/mL | MIC (Klebsiella pneumoniae): > 1250 µg/mL
Structure (SMILES): CC(C)C(NC(=O)[C@H](N)Cc1ccccc1)C(=O)O (stereo not given in full)
diameter of the inhibition zone (DIZ) (Escherichia coli [3]): <6 mm | diameter of the inhibition zone (DIZ) (Staphylococcus aureus [4]): <6 mm

MIC (Escherichia coli [1]): > 1250 µg/mL | MIC (Staphylococcus aureus [2]): > 1250 µg/mL | MIC (Klebsiella pneumoniae): > 1250 µg/mL
Structure (SMILES): CC(C)[C@H](N)C(=O)Nc1ccccc1

Structure (SMILES): CC(C)[C@H](N)C(=O)Nc1ccc(Br)cc1
selectivity ratio [5]: > 32 | MIC (Escherichia coli [1]): 39 µg/mL | MIC (Staphylococcus aureus [2]): 39 µg/mL | MIC (Klebsiella pneumoniae): 78 µg/mL | diameter of the inhibition zone (DIZ) (Escherichia coli [3]): 11.8 mm | diameter of the inhibition zone (DIZ) (Staphylococcus aureus [4]): 11.8 mm | HC50 at 1 h [6]: > 1250 µg/mL | MIC (Staphylococcus aureus [7]): 78 µg/mL (≈ 288 µM)

Structure (SMILES): C#Cc1ccc(NC(=O)[C@@H](N)Cc2ccccc2)cc1
selectivity ratio [5]: > 125 | MIC (Escherichia coli [1]): 39 µg/mL | MIC (Staphylococcus aureus [2]): 10 µg/mL | MIC (Klebsiella pneumoniae): 39 µg/mL | diameter of the inhibition zone (DIZ) (Escherichia coli [3]): 10 mm | diameter of the inhibition zone (DIZ) (Staphylococcus aureus [4]): 13 mm | HC50 at 1 h [6]: > 1250 µg/mL | MIC (Staphylococcus aureus [7]): 10 µg/mL (≈ 37.8 µM)

Structure (SMILES): CN[C@H](CC(C)C)C(=O)N[C@H]1C(=O)N[C@@H](CC(N)=O)C(=O)N[C@H]2C(=O)N[C@H]3C(=O)N[C@H](C(=O)N[C@H](C(=O)O)c4cc(O)cc(O)c4-c4cc3ccc4O)[C@H](O)c3ccc(c(Cl)c3)Oc3cc2cc(c3O[C@@H]2O[C@H](CO)[C@@H](O)[C@H](O)[C@H]2O[C@H]2C[C@](C)(N)[C@H](O)[C@H](C)O2)Oc2ccc(cc2Cl)[C@H]1O [VANCOMYCIN]
MIC (Escherichia coli [1]): 156 µg/mL | MIC (Staphylococcus aureus [2]): < 0.63 µg/mL | MIC (Klebsiella pneumoniae): 1250 µg/mL | MIC (Staphylococcus aureus [7]): 1.25 µg/mL (≈ 0.863 µM)

Structure (SMILES): C#Cc1cccc(NC(=O)[C@@H](N)C(C)C)c1
selectivity ratio [5]: 83.6 | MIC (Escherichia coli [1]): 10 µg/mL | MIC (Staphylococcus aureus [2]): 10 µg/mL | MIC (Klebsiella pneumoniae): 20 µg/mL | diameter of the inhibition zone (DIZ) (Escherichia coli [3]): 15.4 mm | diameter of the inhibition zone (DIZ) (Staphylococcus aureus [4]): 15.7 mm | HC50 at 1 h [6]: 836 µg/mL | MIC (Staphylococcus aureus [7]): 20 µg/mL (≈ 92.5 µM)

Structure (SMILES): C#Cc1cccc(NC(=O)[C@@H](N)Cc2ccccc2)c1
selectivity ratio [5]: > 62.5 | MIC (Escherichia coli [1]): 39 µg/mL | MIC (Staphylococcus aureus [2]): 20 µg/mL | MIC (Klebsiella pneumoniae): 39 µg/mL | diameter of the inhibition zone (DIZ) (Escherichia coli [3]): 10 mm | diameter of the inhibition zone (DIZ) (Staphylococcus aureus [4]): 10.2 mm | HC50 at 1 h [6]: > 1250 µg/mL | MIC (Staphylococcus aureus [7]): 20 µg/mL (≈ 75.7 µM)

Structure (SMILES): C#Cc1ccc(NC(=O)[C@@H](N)C(C)C)cc1
selectivity ratio [5]: 356 | IC50 (SGC-7901 [8]): 70.8 µg/mL (≈ 327 µM) | MIC (Escherichia coli [1]): 5 µg/mL | MIC (Staphylococcus aureus [2]): 2.5 µg/mL | MIC (Klebsiella pneumoniae): 5 µg/mL | diameter of the inhibition zone (DIZ) (Escherichia coli [3]): 20 mm | diameter of the inhibition zone (DIZ) (Staphylococcus aureus [4]): 21.8 mm | HC50 at 1 h [6]: 891 µg/mL | Activity (Escherichia coli [9]): 62.2% | Activity (Escherichia coli [10]): 0.4% | Activity (Escherichia coli [11]): Active | Activity (Staphylococcus aureus [12]): Active | fold change (FC) (Staphylococcus aureus [13]): 2 | fold change (FC) (Staphylococcus aureus [14]): 2 | fold change (FC) (Staphylococcus aureus [15]): 4 | Activity (Staphylococcus aureus [16]): inactive | Activity (Staphylococcus aureus [17]): inactive | Activity (Escherichia coli [18]): inactive | Activity (Escherichia coli [19]): 47.5% | Activity (Escherichia coli [20]): 66.2% | Activity (Escherichia coli [21]): 77.3% | Activity (Escherichia coli [22]): 81.5% | Activity (Escherichia coli [23]): 93.5% | Activity (Staphylococcus aureus [24]): 77.5% | Activity (Staphylococcus aureus [25]): 85.4% | Activity (Staphylococcus aureus [26]): 91% | Activity (Staphylococcus aureus [27]): Active | Activity (Escherichia coli [28]): Active | Activity (SGC-7901 [29]): 9.71% | Activity (SGC-7901 [30]): 11.46% | Activity (SGC-7901 [31]): 50.36% | Activity (L929 [32]): 85% | Activity (L929 [33]): 70% | Activity (L929 [34]): Non-Toxic | fold change (FC) (Escherichia coli [35]): 2 | fold change (FC) (Escherichia coli [36]): 4 | Activity (Escherichia coli [37]): inactive | MIC (Staphylococcus aureus [7]): 5 µg/mL (≈ 23.1 µM)

MIC (Escherichia coli [1]): > 1250 µg/mL | MIC (Staphylococcus aureus [2]): > 1250 µg/mL | MIC (Klebsiella pneumoniae): > 1250 µg/mL
Structure (SMILES): Cc1ccc(NC(=O)[C@@H](N)C(C)C)cc1
